Data from patent publication US12480920B2, “Method for the detection and quantification of fosfomycin, impurities and degradation products thereof” (MEITHEAL PHARMACEUTICALS, INC., priority 2019, dated 2025).

Assay: Stability study of fosfomycin for injection drug product: analysis of impurities by HILIC-HPLC with CAD detection
Assay type: physicochemical
Conditions: fosfomycin for injection drug product (vials, 7.92 g fosfomycin disodium + 150 mg succinic acid), 25° C. and 60% RH; for wt % of impurities at time points (months): 0: 0 months; for wt % of impurities at time points (months): 1: 1 month; for wt % of impurities at time points (months): 3: 3 months; for wt % of impurities at time points (months): 6: 6 months; for wt % of impurities at time points (months): 9: 9 months; for wt % of impurities at time points (months): 12: 12 months
Protocol: As part of a stability study of fosfomycin for injection drug product, analysis of impurities was performed according to the method of the present invention, using HILIC-HPLC method with CAD detection, as disclosed, for example, in example 2.
The sample subjected to the stability test was fosfomycin for injection drug product, namely, vials containing sterile dry powder admixture of 7.92 g of fosfomycin disodium and 150 mg of succinic acid.
The samples were kept at 25° C. and 60% RH. Analysis of impurities was performed at the following time points: 0, 1, 3, 6, 9 and 12 months. Impurities are reported at weight percentage 0.05% (limit of detection of the method). “Dtd.” in the table stands for “detected”, meaning that the impurity is detected but is under the limit of detection (0.05 wt %). ND stands for “not detected”.

| Structure (SMILES) | wt % of impurities at time points (months): 0 | wt % of impurities at time points (months): 1 | wt % of impurities at time points (months): 3 | wt % of impurities at time points (months): 6 | wt % of impurities at time points (months): 9 | wt % of impurities at time points (months): 12 |
| --- | --- | --- | --- | --- | --- | --- |
| C=CCP(=O)(O)O [Olefinic acid, 2-propenyl phosphonic acid] | 0.40 wt % | 0.46 wt % | 0.39 wt % | 0.42 wt % | 0.36 wt % | 0.40 wt % |
| CC(OP(=O)(O)C1OC1C)C(O)P(=O)(O)O (stereo not drawn) [Dimer1] | 0.05 wt % | 0.06 wt % | 0.05 wt % | 0.08 wt % | 0.06 wt % | 0.09 wt % |
| CC(OP(=O)(O)C1OC1C)C(O)P(=O)(O)O (stereo not drawn) [Dimer3] | – | – | – | – | – | Dtd. (“Dtd.” in the table stands for “detected”, meaning that the impurity is detected but is under the limit of detection (0.05 wt %)) |
| CC(O)C(O)P(=O)([O-])[O-].[Na+].[Na+] (stereo not drawn) [Impurity A, (1,2-dihydroxypropyl)phosphonate] | Dtd. (“Dtd.” in the table stands for “detected”, meaning that the impurity is detected but is under the limit of detection (0.05 wt %)) | 0.06 wt % | 0.07 wt % | 0.09 wt % | 0.11 wt % | 0.10 wt % |
| COC(C(C)O)P(=O)(O)O (stereo not drawn) [Methanol adduct] | 0.07 wt % | 0.18 wt % | 0.13 wt % | 0.35 wt % | Dtd. (“Dtd.” in the table stands for “detected”, meaning that the impurity is detected but is under the limit of detection (0.05 wt %)) | 0.12 wt % |
| CC(OP(=O)(OC(C)C(O)P(=O)(O)O)C1OC1C)C(O)P(=O)(O)O (stereo not drawn) [Trimer] | Dtd | 0.07 wt % | – | Dtd. (“Dtd.” in the table stands for “detected”, meaning that the impurity is detected but is under the limit of detection (0.05 wt %)) | Dtd. (“Dtd.” in the table stands for “detected”, meaning that the impurity is detected but is under the limit of detection (0.05 wt %)) | Dtd. (“Dtd.” in the table stands for “detected”, meaning that the impurity is detected but is under the limit of detection (0.05 wt %)) |
| CCOC(C(C)O)P(=O)(O)O (stereo not drawn) [Ethanol adduct] | – | – | Dtd. (“Dtd.” in the table stands for “detected”, meaning that the impurity is detected but is under the limit of detection (0.05 wt %)) | – | Dtd. (“Dtd.” in the table stands for “detected”, meaning that the impurity is detected but is under the limit of detection (0.05 wt %)) | Dtd. (“Dtd.” in the table stands for “detected”, meaning that the impurity is detected but is under the limit of detection (0.05 wt %)) |
| CC(OP(=O)(O)C1OC1C)C(O)P(=O)(O)O (stereo not drawn) [Dimer2] | 0.05 wt % | Dtd. (“Dtd.” in the table stands for “detected”, meaning that the impurity is detected but is under the limit of detection (0.05 wt %)) | 0.07 wt % | 0.10 wt % | 0.08 wt % | 0.11 wt % |
